Data on 27 compounds can be found in patent US11077100B2, “Tetrahydroquinoline derivatives as P2X7 receptor antagonists” (RaQualia Pharma Inc., priority 2017, dated 2021).

Where only a bound is given, the exact number is not on record here.

One assay addresses human P2X7 (Homo sapiens (Human), UniProt Q99572). Description: Human P2X7 functional assay (Ca2+ influx, Fluo-4, FDSS). It counts as cell-based. The following applies: antagonistic activity with respect to the human P2X7 receptor; BzATP final concentration 80 microM. A digest of the protocol:
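HEK293 cells stably expressing C-terminally FLAG-tagged human P2X7, loaded with Fluo-4. Compounds were preincubated for 10 min at room temperature, then 80 μM BzATP (final) was added and Ca2+ fluorescence read at 540 nm (480 nm excitation) by FDSS. IC50 values come from 7-point curves, duplicate wells.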

A further assay deals with rat P2X7 (Rattus norvegicus (Rat), UniProt Q64663). Description: Rat P2X7 functional assay (Ca2+ influx, Fluo-4, FDSS). It counts as cell-based. The following applies: HEK293 cells stably expressing rat P2X7; BzATP final 10 microM; 7-point dose-response; read-out: Antagonistic activities with respect to the rat P2X7 receptor (IC50). Summed up:
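HEK293 cells stably expressing rat P2X7 (5,000/well, plated 24 h before) loaded with Fluo-4; compounds preincubated 10 min at room temperature, then Ca2+ rise after 10 microM BzATP (final) read on FDSS (480/540 nm). IC50 from 7-point curves, duplicate wells.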

rat P2X7, sequence (Q64663 whole entry): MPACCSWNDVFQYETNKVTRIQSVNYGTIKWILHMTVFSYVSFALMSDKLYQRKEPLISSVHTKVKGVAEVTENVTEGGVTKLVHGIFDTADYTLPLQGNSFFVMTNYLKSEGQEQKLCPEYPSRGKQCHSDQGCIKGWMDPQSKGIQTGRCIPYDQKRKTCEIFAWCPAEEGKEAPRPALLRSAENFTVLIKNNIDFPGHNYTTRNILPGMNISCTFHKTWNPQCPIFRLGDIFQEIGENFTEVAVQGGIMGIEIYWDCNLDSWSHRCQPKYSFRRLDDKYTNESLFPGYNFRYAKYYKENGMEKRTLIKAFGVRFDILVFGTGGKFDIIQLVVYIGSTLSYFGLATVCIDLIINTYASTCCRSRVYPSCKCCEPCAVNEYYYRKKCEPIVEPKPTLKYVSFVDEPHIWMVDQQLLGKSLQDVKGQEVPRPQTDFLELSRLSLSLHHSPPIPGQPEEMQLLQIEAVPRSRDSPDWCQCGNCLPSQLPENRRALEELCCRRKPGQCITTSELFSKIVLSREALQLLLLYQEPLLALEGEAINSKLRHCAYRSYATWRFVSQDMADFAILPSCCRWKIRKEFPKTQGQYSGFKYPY
human P2X7, sequence (Q99572 whole entry): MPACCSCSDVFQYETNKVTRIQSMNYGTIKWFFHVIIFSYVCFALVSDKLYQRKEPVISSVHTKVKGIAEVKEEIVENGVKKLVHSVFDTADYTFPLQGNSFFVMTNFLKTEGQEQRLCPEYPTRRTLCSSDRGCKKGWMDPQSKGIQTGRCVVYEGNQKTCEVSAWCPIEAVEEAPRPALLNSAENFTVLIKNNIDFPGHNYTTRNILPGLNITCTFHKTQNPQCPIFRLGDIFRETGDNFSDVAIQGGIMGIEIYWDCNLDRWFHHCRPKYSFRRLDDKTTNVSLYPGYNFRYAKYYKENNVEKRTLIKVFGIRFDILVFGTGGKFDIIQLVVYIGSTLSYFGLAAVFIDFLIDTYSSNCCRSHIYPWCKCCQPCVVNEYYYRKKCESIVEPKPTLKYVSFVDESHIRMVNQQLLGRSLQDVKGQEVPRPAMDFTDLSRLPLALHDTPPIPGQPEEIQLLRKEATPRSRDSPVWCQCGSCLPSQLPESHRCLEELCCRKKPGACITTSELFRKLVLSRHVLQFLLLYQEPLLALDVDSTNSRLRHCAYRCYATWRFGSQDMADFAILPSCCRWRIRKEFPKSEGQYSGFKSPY

On to `CN(CCO)C[C@]1(O)CC[C@@](F)(C(=O)NCc2ccc(Cl)cc2Cl)c2cccnc21` [Example 277, (5S,8R)-N-(2,4-dichlorobenzyl)-5-fluoro-8-hydroxy-8-(((2-hydroxyethyl) (methyl)amino)methyl)-5,6,7,8-tetrahydroquinoline-5-carboxamide], for which the IC50 was less than 50 nM against human P2X7 and less than 1000 nM on rat P2X7.
For `O=C(NCc1ccc(Cl)cc1Cl)[C@@]1(F)CC[C@](O)(CN2CC(O)C2)c2ncccc21` [Example 279, (5R,8S)-N-(2,4-dichlorobenzyl)-5-fluoro-8-hydroxy-8-((3-hydroxyazetidin-1-yl)methyl)-5,6,7,8-tetrahydroquinoline-5-carboxamide], in that order: less than 50 nM and less than 1000 nM.
For `N#CC[C@]1(O)CC[C@@](F)(C(=O)NCc2ccc(Cl)cc2Cl)c2cccnc21` [Example 280, (5S,8R)-8-(cyanomethyl)-N-(2,4-dichlorobenzyl)-5-fluoro-8-hydroxy-5,6,7,8-tetrahydroquinoline-5-carboxamide] the same measures were less than 50 nM and less than 1000 nM.
For `N#CC[C@]1(O)CC[C@@](F)(C(=O)NCc2ccc(F)cc2Cl)c2cccnc21` [Example 281, (5S,8R)-N-(2-chloro-4-fluorobenzyl)-8-(cyanomethyl)-5-fluoro-8-hydroxy-5,6,7,8-tetrahydroquinoline-5-carboxamide], in that order: 301 to 1000 nM and less than 1000 nM.
Regarding `N#CC[C@@]1(O)CC[C@@](F)(C(=O)NCc2ccc(F)cc2Cl)c2cccnc21` [Example 282, (5S,8S)-N-(2-chloro-4-fluorobenzyl)-8-(cyanomethyl)-5-fluoro-8-hydroxy-5,6,7,8-tetrahydroquinoline-5-carboxamide], the IC50 against human P2X7 is less than 50 nM; on rat P2X7, less than 1000 nM.
For `N#CC[C@]1(O)CC[C@@](F)(C(=O)NCc2c(Cl)cc(Cl)cc2CO)c2cccnc21` [Example 283], the IC50 is less than 50 nM against human P2X7 and less than 1000 nM on rat P2X7.
Take `N#CC[C@]1(O)CC[C@@](F)(C(=O)NCc2c(Cl)cc(F)cc2CO)c2cccnc21` [Example 284, (5S,8R)-N-(2-chloro-4-fluoro-6-(hydroxymethyl)benzyl)-8-(cyanomethyl)-5-fluoro-8-hydroxy-5,6,7,8-tetrahydroquinoline-5-carboxamide]: the IC50 is less than 50 nM at human P2X7 and less than 1000 nM on rat P2X7.
For `O=C(NCc1ccc(Cl)cc1Cl)[C@]1(F)CC[C@@](O)(CF)c2ncccc21` [Example 285, (5S,8S)-N-(2,4-dichlorobenzyl)-5-fluoro-8-(fluoromethyl)-8-hydroxy-5,6,7,8-tetrahydroquinoline-5-carboxamide] the same measures were less than 50 nM and less than 1000 nM.
In the case of `O=C(NCc1ccc(F)cc1Cl)[C@]1(F)CC[C@@](O)(CF)c2ncccc21` [Example 286, (5S,8S)-N-(2-chloro-4-fluorobenzyl)-5-fluoro-8-(fluoromethyl)-8-hydroxy-5,6,7,8-tetrahydroquinoline-5-carboxamide], the IC50 against human P2X7 is less than 50 nM; on rat P2X7, less than 1000 nM.
For `CSC[C@]1(O)CC[C@@](F)(C(=O)NCc2ccc(Cl)cc2Cl)c2cccnc21` [Example 287, (5S,8S)-N-(2,4-dichlorobenzyl)-5-fluoro-8-hydroxy-8 ((methylthio)methyl)-5,6,7,8-tetrahydroquinoline-5-carboxamide] the same measures were less than 50 nM and less than 1000 nM.
For `CSC[C@]1(O)CC[C@@](F)(C(=O)NCc2ccc(F)cc2Cl)c2cccnc21` [Example 288, (5S,8S)-N-(2-chloro-4-fluorobenzyl)-5-fluoro-8-hydroxy-8-((methylthio)methyl)-5,6,7,8-tetrahydroquinoline-5-carboxamide], in that order: less than 50 nM and less than 1000 nM.
For `O=C(NCc1ccc(F)cc1Cl)[C@]1(F)CC[C@@](O)(CSCCO)c2ncccc21` [Example 289, (5S,8S)-N-(2-chloro-4-fluorobenzyl)-5-fluoro-8-hydroxy-8-(((2-hydroxyethyl)thio)methyl)-5,6,7,8-tetrahydroquinoline-5-carboxamide], in that order: less than 50 nM and less than 1000 nM.
Turning to `CN1CCO[C@]2(CC[C@@](F)(C(=O)NCc3ccc(Cl)cc3Cl)c3cccnc32)C1` [Example 290, (2R,5′S)—N-(2,4-dichlorobenzyl)-5′-fluoro-4-methyl-6′,7′-dihydro-5′H-spiro[morpholine-2,8′-quinoline]-5′-carboxamide], the results for the IC50 against human P2X7 and on rat P2X7 were less than 50 nM and less than 1000 nM, respectively.
For `O=C1NC[C@]2(CC[C@@](F)(C(=O)NCc3ccc(Cl)cc3Cl)c3cccnc32)O1` [Example 291, (5S,5′S)-N-(2,4-dichlorobenzyl)-5′-fluoro-2-oxo-6′,7′-dihydro-5′H-spiro [oxazolidine-5,8′-quinoline]-5′-carboxamide] the same measures were 101 to 300 nM and less than 1000 nM.
For `O=C1NC[C@@]2(CC[C@@](F)(C(=O)NCc3ccc(Cl)cc3Cl)c3cccnc32)O1` [Example 292, (5R,5′S)-N-(2,4-dichlorobenzyl)-5′-fluoro-2-oxo-6′,7′-dihydro-5′H-spiro [oxazolidine-5,8′-quinoline]-5′-carboxamide] the same measures were 50 to 100 nM and less than 1000 nM.
For `O=C1CO[C@@]2(CC[C@@](F)(C(=O)NCc3ccc(Cl)cc3Cl)c3cccnc32)CN1` [Example 294, (2S,5′S)-N-(2,4-dichlorobenzyl)-5′-fluoro-5-oxo-6′,7′-dihydro-5′H-spiro [morpholine-2,8′-quinoline]-5′-carboxamide] the same measures were 50 to 100 nM and less than 1000 nM.
Take `O=C1CO[C@]2(CC[C@@](F)(C(=O)NCc3ccc(Cl)cc3Cl)c3cccnc32)CN1` [Example 295, (2R,5′S)-N-(2,4-dichlorobenzyl)-5′-fluoro-5-oxo-6′,7′-dihydro-5′H-spiro [morpholine-2,8′-quinoline]-5′-carboxamide]: the IC50 is less than 50 nM at human P2X7 and less than 1000 nM at rat P2X7.
For `C[S+]([O-])C[C@]1(O)CC[C@@](F)(C(=O)NCc2ccc(F)cc2Cl)c2cccnc21` (stereo partly drawn) [Example 296, (5S,8S)-N-(2-chloro-4-fluorobenzyl)-5-fluoro-hydroxy-8-((methylsulfinyl)methyl)-5,6,7,8-tetrahydroquinoline-5-carboxamide], in that order: 50 to 100 nM and less than 1000 nM.
For `CS(=O)(=O)C[C@]1(O)CC[C@@](F)(C(=O)NCc2ccc(Cl)cc2Cl)c2cccnc21` [Example 298, (5S,8S)-N-(2,4-dichlorobenzyl)-5-fluoro-8-hydroxy-8-((methylsulfonyl)methyl)-5,6,7,8-tetrahydroquinoline-5-carboxamide] the same measures were less than 50 nM and less than 1000 nM.
On to `CS(=O)(=O)C[C@]1(O)CC[C@@](F)(C(=O)NCc2ccc(F)cc2Cl)c2cccnc21` [Example 299, (5S,8S)-N-(2-chloro-4-fluorobenzyl)-5-fluoro-8-hydroxy-8-((methylsulfonyl)methyl)-5,6,7,8-tetrahydroquinoline-5-carboxamide], for which the values for the IC50 against human P2X7 and on rat P2X7 were 101 to 300 nM and less than 1000 nM, respectively.
For `O=C(NCc1ccc(Cl)cc1Cl)[C@]1(F)CC[C@@](O)(CS(=O)(=O)CCO)c2ncccc21` [Example 300, (5S,8S)-N-(2,4-dichlorobenzyl)-5-fluoro-8-hydroxy-8-(((2-hydroxyethyl)sulfonyl)methyl)-5,6,7,8-tetrahydroquinoline-5-carboxamide] the same measures were less than 50 nM and less than 1000 nM.
For `O=C(NCc1ccc(F)cc1Cl)[C@]1(F)CC[C@@](O)(CS(=O)(=O)CCO)c2ncccc21` [Example 301, (5S,8S)-N-(2-chloro-4-fluorobenzyl)-5-fluoro-8-hydroxy-8-(((2-hydroxyethyl)sulfonyl)methyl)-5,6,7,8-tetrahydroquinoline-5-carboxamide] the same measures were 50 to 100 nM and less than 1000 nM.
Turning to `O=C(NCc1ccc(Cl)cc1Cl)[C@@]1(F)CC[C@](O)(CO)c2ncccc21` [Example 302, (5R,8R)-N-(2,4-dichlorobenzyl)-5-fluoro-8-hydroxy-8-(hydroxymethyl)-5,6,7,8-tetrahydroquinoline-5-carboxamide], the IC50 on human P2X7 is 101 to 300 nM; at rat P2X7, less than 1000 nM.
For `O=C(NCc1ccc(Cl)cc1Cl)[C@@]1(F)CC[C@@](O)(CO)c2ncccc21` [Example 303, (5R,8S)-N-(2,4-dichlorobenzyl)-5-fluoro-8-hydroxy-8-(hydroxymethyl)-5,6,7,8-tetrahydroquinoline-5-carboxamide], in that order: 1000 to 3000 nM and less than 1000 nM.
For `O=C(NCc1ccc(Cl)cc1Cl)[C@]1(F)CC[C@@](O)(CO)c2ncccc21` [Example 304, (5S,8S)-N-(2,4-dichlorobenzyl)-5-fluoro-8-hydroxy-8-(hydroxymethyl)-5,6,7,8-tetrahydroquinoline-5-carboxamide], in that order: less than 50 nM and less than 1000 nM.
For `O=C(NCc1ccc(Cl)cc1Cl)[C@]1(F)CC[C@](O)(CO)c2ncccc21` [Example 305, (5S,8R)-N-(2,4-dichlorobenzyl)-5-fluoro-8-hydroxy-8-(hydroxymethyl)-5,6,7,8-tetrahydroquinoline-5-carboxamide] the same measures were less than 50 nM and less than 1000 nM.
As for `O=C(NCc1ccc(F)cc1Cl)[C@]1(F)CC[C@@](O)(CO)c2ncccc21` [Example 306, (5S,8S)-N-(2-chloro-4-fluorobenzyl)-5-fluoro-8-hydroxy-8-(hydroxymethyl)-5,6,7,8-tetrahydroquinoline-5-carboxamide], the IC50 on human P2X7 is less than 50 nM; on rat P2X7, less than 1000 nM.
